For assay [1], the target named is Recombinant human JAK2 catalytic domain (Homo sapiens (Human), UniProt O60674). Briefly: JAK2 kinase assay (Z'-LYTE, Tyr 6 Peptide). Type of assay: biochemical. As to the method: (§1) JAK1/2/3 kinase assay are performed in vitro using Kit-Tyr 6 Peptide (Invitrogen, Cat. No. PV4122). TYK2 kinase assay are performed in vitro using Z′-LYTE™ Kinase Assay Kit-Tyr 3 Peptide (Invitrogen, Cat. No. PV3192). […] All compounds are initially tested at 8 different concentrations (1 μM down to 0.0003 μM) using a 1:3 serial dilution scheme.
Chain of Recombinant human JAK2 catalytic domain (O60674 849-1124): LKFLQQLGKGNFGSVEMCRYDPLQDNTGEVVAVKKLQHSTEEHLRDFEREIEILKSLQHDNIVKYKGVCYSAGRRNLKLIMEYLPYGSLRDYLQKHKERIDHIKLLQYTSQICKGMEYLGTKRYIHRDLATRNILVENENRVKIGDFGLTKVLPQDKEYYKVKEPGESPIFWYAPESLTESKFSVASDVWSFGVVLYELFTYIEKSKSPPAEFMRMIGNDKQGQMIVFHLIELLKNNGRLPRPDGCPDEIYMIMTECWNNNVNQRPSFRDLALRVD

For assay [2], the target named is Recombinant human JAK3 catalytic domain (Homo sapiens (Human), UniProt P52333). The assay can be described thus: JAK3 kinase assay (Z'-LYTE, Tyr 6 Peptide). Type of assay: biochemical. As to the method:
as §1

The mark [3] stands for this setting: read-out: IC50 in JAK2 kinase assay.
[4] abbreviates: read-out: IC50 in JAK3 kinase assay.

Molecules are shown by their SMILES. Where two headings read alike, the source gives them in different places.

One may read the IC50 as the concentration that inhibits the measured activity by half.

Chain of Recombinant human JAK3 catalytic domain (P52333 822-1111): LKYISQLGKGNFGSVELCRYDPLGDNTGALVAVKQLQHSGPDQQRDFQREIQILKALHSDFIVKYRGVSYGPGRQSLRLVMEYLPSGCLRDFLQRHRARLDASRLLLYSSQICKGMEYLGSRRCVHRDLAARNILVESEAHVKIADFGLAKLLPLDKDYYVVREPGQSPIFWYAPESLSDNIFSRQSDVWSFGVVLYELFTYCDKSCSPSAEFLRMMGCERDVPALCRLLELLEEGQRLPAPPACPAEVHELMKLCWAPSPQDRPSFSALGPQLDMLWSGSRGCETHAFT

Regarding `CN(c1ncc(Br)cn1)[C@@H]1CCN(c2ncnc3[nH]ccc23)C1` [Compound 94], the IC50 in assay [1] (setting [3]) lay within 0.001 to 0.1 µM; in assay [2] (setting [4]) it was 0.1 to 1 µM.
As to `CNS(=O)(=O)N(C)[C@@H]1CCN(c2ncnc3[nH]ccc23)C1` [Compound 47], the IC50 in assay [1] (setting [3]) is 0.001 to 0.1 µM; in assay [1] (read-out: JAK2 (enzyme, IC50)), 0.098 µM; in assay [2] (read-out: JAK3 (enzyme, IC50)), 0.157 µM.
In the case of `N#Cc1ccc(N(C2CC2)[C@@H]2CCN(c3ncnc4[nH]ccc34)C2)nc1` [Compound 41], the IC50 in assay [1] (setting [3]) was in the range of 0.001 to 0.1 µM; in assay [2] (setting [4]) it was 0.1 to 1 µM.
The like results for `C=CCN(C1CCCC1)[C@@H]1CCN(c2ncnc3[nH]ccc23)C1` [Compound 40] were, in that order, 0.001 to 0.1 µM and 0.1 to 1 µM.
The like results for `CN(CCC#N)[C@@H]1CCN(c2ncnc3[nH]ccc23)C1` [Compound 64] were, in that order, 0.001 to 0.1 µM and 0.1 to 1 µM.
The like results for `CN(c1ncccc1C#N)[C@@H]1CCN(c2ncnc3[nH]ccc23)C1` [Compound 159] were, in that order, 0.001 to 0.1 µM and 0.1 to 1 µM.
Regarding `CN(c1ccccn1)[C@@H]1CCN(c2ncnc3[nH]ccc23)C1` [Compound 156], the IC50 is 0.001 to 0.1 µM in assay [1] (setting [3]) and 0.1 to 1 µM in assay [2] (setting [4]).
The like results for `CN(c1ccc(C(=O)NCCO)cn1)[C@@H]1CCN(c2ncnc3[nH]ccc23)C1` [Compound 190] were, in that order, 0.001 to 0.1 µM and 0.1 to 1 µM.
On to `CN(c1ccc(C#N)c2ccccc12)[C@@H]1CCN(c2ncnc3[nH]ccc23)C1` [Compound 111], for which the IC50 in assay [1] (setting [3]) is 0.001 to 0.1 µM; in assay [2] (setting [4]), 0.1 to 1 µM.
The like results for `C#Cc1ccc(N(C)[C@@H]2CCN(c3ncnc4[nH]ccc34)C2)nc1` [Compound 162, (R)—N-(1-(7H-pyrrolo[2,3-d]pyrimidin-4-yl)pyrrolidin-3-yl)-5-ethynyl-N-methylpyridin-2-amine] were, in that order, 0.001 to 0.1 µM and 0.001 to 0.1 µM.
The like results for `CN(c1ccc2nc[nH]c2n1)[C@@H]1CCN(c2ncnc3[nH]ccc23)C1` [Compound 163, (R)—N-(1-(7H-pyrrolo[2,3-d]pyrimidin-4-yl)pyrrolidin-3-yl)-N-methyl-3H-imidazo[4,5-b]pyridin-5-amine] were, in that order, 0.001 to 0.1 µM and 0.1 to 1 µM.
The like results for `CN(c1ccc(C(F)(F)F)nn1)[C@@H]1CCN(c2ncnc3[nH]ccc23)C1` [Compound 62] were, in that order, 0.001 to 0.1 µM and 0.1 to 1 µM.
For `CN(c1ccc(C#N)cn1)[C@@H]1CCN(c2ncnc3[nH]ccc23)C1` [Compound 71], the IC50 was 0.001 to 0.1 µM in assay [1] (setting [3]) and 0.1 to 1 µM in assay [2] (setting [4]).
In the case of `CN(c1ccc(F)cn1)[C@@H]1CCN(c2ncnc3[nH]ccc23)C1` [Compound 66], the IC50 in assay [1] (setting [3]) and in assay [2] (setting [4]) was 0.001 to 0.1 µM each time.
In the case of `CN(c1ncc(C#N)cc1[N+](=O)[O-])[C@@H]1CCN(c2ncnc3[nH]ccc23)C1` [Compound 96], the IC50 in assay [1] (setting [3]) and in assay [2] (setting [4]) was 0.1 to 1 µM each time.
Take `CN(c1nc(Cl)nc2ccccc12)[C@@H]1CCN(c2ncnc3[nH]ccc23)C1` [Compound 79]: the IC50 in assay [1] (setting [3]) and in assay [2] (setting [4]) was 0.1 to 1 µM each time.
Take `C#CCN(c1ccc(C#N)cc1)[C@@H]1CCN(c2ncnc3[nH]ccc23)C1` [Compound 131]: the IC50 in assay [1] (setting [3]) lay in the range of 0.001 to 0.1 µM; in assay [2] (setting [4]), 0.1 to 1 µM.
Turning to `COC(=O)c1ccc(N(C)[C@@H]2CCN(c3ncnc4[nH]ccc34)C2)nc1` [Compound 168, (R)-methyl 6-((1-(7H-pyrrolo[2,3-d]pyrimidin-4-yl)pyrrolidin-3-yl)(methyl)amino)nicotinate], the IC50 lay in the range of 0.001 to 0.1 µM in assay [1] (setting [3]) and 0.1 to 1 µM in assay [2] (setting [4]).
On to `CN(c1ccc(C#N)c(F)c1)[C@@H]1CCN(c2ncnc3[nH]ccc23)C1` [Compound 105], for which the IC50 stood at 0.0487 µM in assay [1] (read-out: JAK2 (enzyme, IC50)) and 0.359 µM in assay [2] (read-out: JAK3 (enzyme, IC50)).
For `CN(c1ccc2[nH]c(=O)[nH]c2n1)[C@@H]1CCN(c2ncnc3[nH]ccc23)C1` [Compound 164, (R)-5-((1-(7H-pyrrolo[2,3-d]pyrimidin-4-yl)pyrrolidin-3-yl)(methyl)amino)-1H-Imidazo[4,5-b]pyridin-2(3H)-one], the IC50 in assay [1] (setting [3]) fell in the range of 0.001 to 0.1 µM; in assay [2] (setting [4]) it was 0.1 to 1 µM.

For the origin of these results see patent US9346810B2, “Pyrrolopyrimidine compounds and uses thereof” (HUTCHISON MEDIPHARMA LIMITED, priority 2010, dated 2016).
